# Where a name gives a salt, the structure may show the parent alone.
# Key:
# [1] = system: Dermatophyten, Schimmelpilze, Hefen; experiment: Antimycotic in-vitro activity, serial dilution test, overall comparison with prior art; assay type: cell-based; details: in-vitro Reihenverdünnungstest
# Method: (§1) Versuchsbeschreibung: • Die in-vitro-Prüfungen wurden im Reihenverdünnungstest mit Keiminokula von durchschnittlich 5 x 10^4 Keimen/ml Substrat durchgeführt. Als Nährmedium dienten • a) für Dermatophyten und Schimmelpilze: Sabourand's milieu d'epreuve • b) für Hefen: • Fleischextrakt-Traubenzucker-Bouillon.
# (§2) Die Bebrütungstemperatur betrug 20°C, die Bebrütungsdauer lag bei 24 bis 96 Stunden bei Hefen und 96 Stunden bei Dermatophyten und Schimmelpilzen.
# [2] = system: Microsporum canis; experiment: Antimycotic in-vitro activity, serial dilution test (MIC); assay type: cell-based; details: 96 h, Reihenverdünnungstest, 5 x 10^4 Keimen/ml Substrat, Sabourand's milieu d'epreuve, 20°C, 96 Stunden, read-out: MHK-Werte in γ/ml Nährmedium, Microsporum canis
# Method: as §1, §2
# [3] = system: Candida albicans; experiment: as above; assay type: cell-based; details: Reihenverdünnungstest, 5 x 10^4 Keimen/ml Substrat, Fleischextrakt-Traubenzucker-Bouillon, 20°C, 24 bis 96 Stunden, read-out: MHK-Werte in γ/ml Nährmedium, Candida albicans
# Method: as §1, §2
# [4] = system: Torulopsis glabrata; experiment: as above; assay type: cell-based; details: Nakaseomyces glabratus; Reihenverdünnungstest, 5 x 10^4 Keimen/ml Substrat, Fleischextrakt-Traubenzucker-Bouillon, 20°C, 24 bis 96 Stunden; read-out: MHK-Werte in γ/ml Nährmedium, Torulopsis glabrata
# Method: as §1, §2
# [5] = system: Trichophyton mentagr.; experiment: as above; assay type: cell-based; details: 96 h, Reihenverdünnungstest, 5 x 10^4 Keimen/ml Substrat, Sabourand's milieu d'epreuve, 20°C, 96 Stunden, read-out: MHK-Werte in γ/ml Nährmedium, Trichophyton mentagr.
# Method: as §1, §2
# [6] = system: Aspergillus fumig.; experiment: as above; assay type: cell-based; details: 96 h, Reihenverdünnungstest, 5 x 10^4 Keimen/ml Substrat, Sabourand's milieu d'epreuve, 20°C, 96 Stunden, read-out: MHK-Werte in γ/ml Nährmedium, Aspergillus fumig.
# Method: as §1, §2
# [7] = system: Trichophyton von mentagrophytes; experiment: Antimycotic in-vivo activity (local) in experimental guinea pig trichophytosis; details: Meerschweinchen-Trichophytie, lokal
# Excerpt: Antimikrobielle in-vivo-Wirksamkeit (lokal) am Modell der experimentellen Meerschweinchen-Trichophytie
# […] der Rasse Pirbright-white wurden auf dem geschorenen, nicht skarifizierten Rücken mit einer Mikro-und Makrokonidien-Suspension von Trichophyton von mentagrophytes infiziert.
# Die infizierten Tieren wurden, beginnend mit dem 3. Tag p.i., 1 x täglich mit einer 15%-igen Lösung der erfindungsgemäßen Präparate (in Dimethylsulfoxid : Glycerin = 1 : 4) lokal behandelt.
# Bei unbehandelten Tieren entwickelte sich innerhalb 12 Tagen p.i. das typische Bild einer Dermatophytose mit Rötung, Schuppung und Haarausfall bis zum totalen Integument-Defekt an der Infektionsstelle.
# [8] = system: Candida-Zellen; experiment: Antimycotic in-vivo activity (oral) in mouse candidosis; design: species or system Mäuse vom Typ SPF-CF1; key to Wirkung (Überlebende am 6.Tag p.i.): +++++: = sehr gute Wirkung = 90 % Überlebende am 6.Tag p.i.; ++++: = gute Wirkung = 80 % Überlebende am 6.Tag p.i.; +++: = Wirkung = 60 % Überlebende am 6.Tag p.i.; ++: = schwache Wirkung = 40 % Überlebende am 6.Tag p.i.; +: = Spur Wirkung = unter 40 % Überlebende am 6. Tag; k.W.: = keine Wirkung; details: for Wirkung (Überlebende am 6.Tag p.i.): Mäuse SPF-CF1, intravenös infiziert mit 1 - 2 x 10^6 Candida-Zellen, jeweils 50 - 100 mg/kg oral, 1 Stunde vor und 7 Stunden nach Infektion; for Wirkung im Vergleich zu den bekannten Verbindungen (A) und (B): Mäusecandidose, oral
# Method: Antimykotische in-vivo-Wirksamkeit (oral) bei Mäusecandidose
# Mäuse vom Typ SPF-CF1 wurden intravenös mit 1 - 2 x 10^6 logarithmisch wachsenden Candida-Zellen, die in physiologischer Kochsalzlösung suspendiert werden, infiziert. Eine Stunde vor und sieben Stunden nach der Infektion werden die Tiere mit jeweils 50 - 100 mg/kg Körpergewicht der Präparate oral behandelt.
# Unbehandelte Tiere starben 3 bis 6 Tage post infektionem. Die Überlebensrate am 6. Tag post infektionem betrug bei unbehandelten Kontrolltieren etwa 5 %.
Structure (SMILES),MIC [2],MIC [3],MIC [4],MIC [5],MIC [6],antimykotische Wirkung im Vergleich zu den bekannten Verbindungen (A) und (B) [1],Wirkung [7],Wirkung (Überlebende am 6.Tag p.i.) [8],Wirkung im Vergleich zu den bekannten Verbindungen (A) und (B) [8]
CC(C)(COc1ccc(Cl)cc1)C(O)C(CC1CCCCC1)n1ccnc1 (centres unmarked) [Beispiel 20],4 µg/mL,< 1 µg/mL,8 µg/mL,< 1 µg/mL,4 µg/mL,bessere antimykotische Wirkung,gute bis sehr gute Wirkung,++++ (= gute Wirkung = 80 % Überlebende am 6.Tag p.i.),bessere Wirkung
CC(C)(COc1ccc(Cl)cc1)C(O)C(Cc1ccc(Cl)cc1Cl)n1cncn1 (centres unmarked) [Beispiel 11],< 1 µg/mL,< 1 µg/mL,< 1 µg/mL,< 1 µg/mL,64 µg/mL,bessere antimykotische Wirkung,gute bis sehr gute Wirkung,++ (= schwache Wirkung = 40 % Überlebende am 6.Tag p.i.),bessere Wirkung
"OC(Cn1cncn1)c1ccc(-c2ccc(Cl)cc2)cc1 (centres unmarked) [(B), reference compound]",> 64 µg/mL,> 64 µg/mL,–,4 µg/mL,> 64 µg/mL,–,–,k.W.,–
CC(C)(Oc1ccc(Cl)cc1Cl)C(O)C(Cc1ccc(Cl)cc1Cl)n1cncn1 (centres unmarked) [Beispiel 25],8 µg/mL,> 64 µg/mL,64 µg/mL,< 1 µg/mL,> 64 µg/mL,bessere antimykotische Wirkung,–,–,–
"CC(C(O)c1ccc(Cl)cc1)n1cncn1 (centres unmarked) [(A), reference compound]",–,> 64 µg/mL,–,> 64 µg/mL,–,–,–,k.W.,–
CC(C)(COc1ccc(Cl)cc1)C(O)Cn1cncn1 (centres unmarked) [Beispiel 4],8 µg/mL,32 µg/mL,> 64 µg/mL,16 µg/mL,16 µg/mL,bessere antimykotische Wirkung,–,–,–
"CC(C)(Oc1ccc(Cl)cc1Cl)C(O)C(Cc1ccc(Cl)cc1)n1cncn1 (centres unmarked) [Beispiel 1, 5-(4-Chlorphenyl)-2-(2,4-dichlorphen-oxy)-2-methyl-4-(1,2,4-triazol-1-yl)-pentan-3-ol-hydrochlorid]",64 µg/mL,16 µg/mL,64 µg/mL,2 µg/mL,64 µg/mL,bessere antimykotische Wirkung,–,–,–
"CC(C)(COc1ccc(Cl)cc1)C(O)C(CC1CCCCC1)n1cncn1 (centres unmarked) [Beispiel 2, 1-(4-Chlorphenoxy)-5-cyclohexyl-2,2-dimethyl-4-(1,2,4-triazol-1-yl)-pentan-3-ol]",2 µg/mL,< 1 µg/mL,< 1 µg/mL,< 1 µg/mL,2 µg/mL,bessere antimykotische Wirkung,–,–,–

# Further lines, with some results ahead:
MIC [2],MIC [3],MIC [4],MIC [5],MIC [6],Structure (SMILES),antimykotische Wirkung im Vergleich zu den bekannten Verbindungen (A) und (B) [1],Wirkung [7],Wirkung (Überlebende am 6.Tag p.i.) [8],Wirkung im Vergleich zu den bekannten Verbindungen (A) und (B) [8]
8 µg/mL,8 µg/mL,32 µg/mL,< 1 µg/mL,4 µg/mL,CCCCC(C(O)C(C)(C)COc1ccc(-c2ccccc2)cc1)n1cncn1 (centres unmarked) [Beispiel 100],bessere antimykotische Wirkung,–,+++ (= Wirkung = 60 % Überlebende am 6.Tag p.i.),bessere Wirkung
16 µg/mL,< 1 µg/mL,8 µg/mL,< 1 µg/mL,8 µg/mL,CC(C)(Cc1ccc(Cl)cc1)C(O)C(Cc1ccccc1)n1ccnc1 (centres unmarked) [Beispiel 128],bessere antimykotische Wirkung,–,++++ (= gute Wirkung = 80 % Überlebende am 6.Tag p.i.),bessere Wirkung
< 1 µg/mL,< 1 µg/mL,< 1 µg/mL,< 1 µg/mL,4 µg/mL,CCCCC(C(O)C(C)(C)COc1ccc(Br)cc1)n1cncn1 (centres unmarked) [Beispiel 46],bessere antimykotische Wirkung,gute bis sehr gute Wirkung,++++ (= gute Wirkung = 80 % Überlebende am 6.Tag p.i.),bessere Wirkung
8 µg/mL,< 1 µg/mL,2 µg/mL,< 1 µg/mL,16 µg/mL,COc1cccc(CC(C(O)C(C)(C)COc2ccc(Cl)cc2)n2cncn2)c1 (centres unmarked) [Beispiel 87],bessere antimykotische Wirkung,–,++ (= schwache Wirkung = 40 % Überlebende am 6.Tag p.i.),bessere Wirkung
4 µg/mL,4 µg/mL,2 µg/mL,< 1 µg/mL,64 µg/mL,CC(C)(CSc1ccccc1)C(O)C(Cc1ccc(Cl)cc1)n1cncn1 (centres unmarked) [Beispiel 37],bessere antimykotische Wirkung,–,–,–
4 µg/mL,16 µg/mL,64 µg/mL,2 µg/mL,16 µg/mL,CC(C)(Oc1ccc(Cl)cc1Cl)C(O)C(Cc1ccccc1)n1cncn1 (centres unmarked) [Beispiel 28],bessere antimykotische Wirkung,–,–,–
< 1 µg/mL,< 1 µg/mL,< 1 µg/mL,< 1 µg/mL,64 µg/mL,CC(C)(CSc1ccc(Cl)cc1)C(O)C(Cc1ccc(Cl)cc1)n1cncn1 (centres unmarked) [Beispiel 38],bessere antimykotische Wirkung,–,–,–
2 µg/mL,2 µg/mL,8 µg/mL,< 1 µg/mL,< 1 µg/mL,CCCCC(C(O)C(C)(C)Cc1ccc(Cl)cc1Cl)n1cncn1 (centres unmarked) [Beispiel 81],bessere antimykotische Wirkung,–,–,–
< 1 µg/mL,< 1 µg/mL,16 µg/mL,< 1 µg/mL,64 µg/mL,CC(C)(COc1ccc(-c2ccccc2)cc1)C(O)Cn1ccnc1 (centres unmarked) [Beispiel 96],bessere antimykotische Wirkung,–,–,–
2 µg/mL,2 µg/mL,8 µg/mL,< 1 µg/mL,8 µg/mL,CCCCC(C(O)C(C)(C)Oc1ccc(Cl)cc1Cl)n1cncn1 (centres unmarked) [Beispiel 51],bessere antimykotische Wirkung,–,–,–
